The values that follow come from patent US10683297B2 (Sunshine Lake Pharma Co., Ltd., priority 2017, dated 2020).

The target of data set [1] is T1, JAK1 (h) (Homo sapiens, UniProt P23458).
T1 construct: purchased Millipore UK Ltd (assays performed there as a service)
Kind of data set: JAK1 (h) kinase assay. In kind it is biochemical. As to conditions: [γ-33P-ATP] 10 μM or KM values; 40 minutes at room temperature. Here is the method:
The above assay procedure can be used to determine the IC50 for inhibition and/or the inhibition constant, Ki. […] The IC50 value is estimated by preparing a 10 point curve using a ½ log dilution series (for example, a typical curve may be prepared using the following compound concentrations: 3 μM, 1 μM, 0.3 μM, 0.1 μM, 0.03 μM, 0.01 μM, 0.003 μM, 0.001 μM, 0.0003 μM and 0 μM).
JAK1 (h) is incubated with 20 mM Tris/HCl pH 7.5, 0.2 mM EDTA, 500 μM […], 10 mM MgAcetate and [γ-^33P-ATP] […] The reaction is initiated by the addition of the MgATP mix. After incubation for 40 minutes at room temperature, the reaction is stopped by the addition of 3% phosphoric acid solution. 10 μL of the reaction is then spotted onto a P30 filtermat and washed three times for 5 minutes in 75 mM phosphoric acid and once in methanol prior to drying and scintillation counting.
The kinase assays described herein were performed at Millipore UK Ltd, Dundee Technology Park, Dundee DD2 1SW, UK.

The nature of data set [2]: Compound stability in rat liver microsomes. The data set is classed as in vitro ADME. As to conditions: for CLint scaled at 5 μM: liver microsomes, pH 7.4, in vivo CLint extrapolated from rat liver microsome incubation; for half-life at 5 μM: rat liver microsomes 0.5 mg protein/mL, compound 5 μM, NADPH 1.0 mM, pH 7.4, 37° C., read-out: Rat T1/2. Here is the method:
(§1) The LC/MS/MS system used in the analysis consists of an Agilent 1200 Series vacuum degasser, binary pump, well-plate autosampler, thermostatted column compartment, the Agilent G6430 Triple Quadrupole Mass Spectrometer with an electrosprayionization (ESI) source. Quantitative analysis was carried out using MRM mode. The parameters for MRM transitions are in the Table A.
(§2) An Agilent XDB-C18, 2.1×30 mm, 3.5 μM column was used for the analysis. 5 μL of the samples were injected. Analysis condition: The mobile phase was 0.1% formic acid in water (A) and 0.1% formic acid in methanol (B). The flow rate was 0.4 mL/min. And the gradient of Mobile phase was in the Table B.
(§3) Alternatively, an Agilent 6330 series LC/MS/MS spectrometer equipped with G1312A binary pumps, a G1367A autosampler and a G1314C UV detector were used in the analysis. An ESI source was used on the LC/MS/MS spectrometer. The analysis was done in positive ion mode as appropriate and the MRM transition for each analyte was optimized using standard solution. A Capcell MP-C18 100×4.6 mm I.D., 5 uM column (Phenomenex, Torrance, Calif., USA) was used during the analysis. The mobile phase was 5 mM ammonia acetate, 0.1% MeOH in water (A): 5 mM ammonia acetate, 0.1% MeOH in acetonitrile (B) (70/30, v/v). The flow rate was 0.6 mL/min. Column was maintained at ambient temperature. 20 μL of the samples were injected.
(§4) Human or rat liver microsomes incubations were conducted in duplicate in polypropylene tubes. The typical incubation mixtures consisted of human or rat liver microsomes (0.5 mg protein/mL), compounds of interest (5 μM) and NADPH (1.0 mM) in a total volume of 200 μL potassium phosphate buffer (PBS, 100 mM, pH 7.4). Compounds were dissolved in DMSO and diluted with PBS such that the final concentration of DMSO was 0.05%. The enzymatic reactions were commenced with the addition of […] after a 3-min preincubation and incubated in a water bath open to the air at 37° C. Reactions were terminated at various time points (0, 5, 10, 15, 30, 60 min) by adding equal volume of ice-cold acetonitrile. The samples were stored at […] until LC/MS/MS assays.
(§5) The concentrations of compounds in the incubation mixtures of human or rat liver microsomes were determined by a LC/MS/MS method. The ranges of the linearity in the concentration range were determined for each tested compounds.
(§6) A parallel incubation was performed using denatured microsomes as the negative control, and reactions were terminated at various time points (0, 15, 60 min) after incubation at 37° C.
(§7) Dextromethorphan (70 μM) was selected as the positive control, and reactions were terminated at various time points (0, 5, 10, 15, 30, 60 min) after incubation at 37° C. Both positive and negative control samples were included in each assay to ensure the integrity of the microsomal incubation system.
(§8) The concentrations of compounds in human or rat liver microsome incubations were plotted as a percentage of the relevant zero time point control for each reaction. The in vivo CLint were extrapolated (ref.: Naritomi, Y.; Terashita, S.; Kimura, S.; Suzuki, A.; Kagayama, A.; and Sugiyama, Y.; Prediction of human hepatic clearance from in vivo animal experiments and in vitro metabolic studies with liver microsomes from animals and humans. Drug Metab. Dispos., 2001, 29: 1316-1324).

A short description of data set [3]: Compound stability in human liver microsomes. The data set is classed as in vitro ADME. As to conditions: for half-life at 5 μM: human liver microsomes 0.5 mg protein/mL, compound 5 μM, NADPH 1.0 mM, pH 7.4, 37° C., read-out: Human T1/2; for CLint scaled at 5 μM: liver microsomes, pH 7.4, in vivo CLint extrapolated from human liver microsome incubation. Here is the method:
as §1, §2, §3, §4, §5, §6, §7, §8

Data set [4] is described as follows: Pharmacokinetics after intravenous and oral administration in rats. The data set is classed as in vivo. The protocol:
as §1, §2, §3
The compounds disclosed herein are assessed in pharmacokinetic studies in mice, rats, dogs or monkeys. The compounds are administered as a water solution, 2% HPMC+1% TWEEN®80 in water solution, 5% DMSO+5% solutol in saline, 4% MC suspension or capsule. For the intravenous administration, the animals are generally given at about 0.5, 0.6, 1 or 2 mg/kg dose. For the oral (p.o.) dosing, mice and rats are generally given 5 or 10 mg/kg dose, and dogs and monkeys are generally given 10 mg/kg dose. The blood samples (0.3 mL) are drawn at 0.25, 0.5, 1.0, 2.0, 3.0, 4.0, 6.0, 8.0, 12 and 24 h time points or 0.083, 0.25, 0.5, 1.0, 2.0, 4.0, 6.0, 8.0 and 24 h time points and centrifuged at 3,000 or 4000 rpm for 2 to 10 min. The plasma solutions are collected, and stored at […] until analyzed by LC/MS/MS as described above.

[5] abbreviates: rat, plasma, iv dosing, dose 1 mg/kg (Ex. 9: 0.6, Ex. 18: 0.5, Ex. 50: 0.96 mg/kg).

T1 sequence (P23458 whole entry): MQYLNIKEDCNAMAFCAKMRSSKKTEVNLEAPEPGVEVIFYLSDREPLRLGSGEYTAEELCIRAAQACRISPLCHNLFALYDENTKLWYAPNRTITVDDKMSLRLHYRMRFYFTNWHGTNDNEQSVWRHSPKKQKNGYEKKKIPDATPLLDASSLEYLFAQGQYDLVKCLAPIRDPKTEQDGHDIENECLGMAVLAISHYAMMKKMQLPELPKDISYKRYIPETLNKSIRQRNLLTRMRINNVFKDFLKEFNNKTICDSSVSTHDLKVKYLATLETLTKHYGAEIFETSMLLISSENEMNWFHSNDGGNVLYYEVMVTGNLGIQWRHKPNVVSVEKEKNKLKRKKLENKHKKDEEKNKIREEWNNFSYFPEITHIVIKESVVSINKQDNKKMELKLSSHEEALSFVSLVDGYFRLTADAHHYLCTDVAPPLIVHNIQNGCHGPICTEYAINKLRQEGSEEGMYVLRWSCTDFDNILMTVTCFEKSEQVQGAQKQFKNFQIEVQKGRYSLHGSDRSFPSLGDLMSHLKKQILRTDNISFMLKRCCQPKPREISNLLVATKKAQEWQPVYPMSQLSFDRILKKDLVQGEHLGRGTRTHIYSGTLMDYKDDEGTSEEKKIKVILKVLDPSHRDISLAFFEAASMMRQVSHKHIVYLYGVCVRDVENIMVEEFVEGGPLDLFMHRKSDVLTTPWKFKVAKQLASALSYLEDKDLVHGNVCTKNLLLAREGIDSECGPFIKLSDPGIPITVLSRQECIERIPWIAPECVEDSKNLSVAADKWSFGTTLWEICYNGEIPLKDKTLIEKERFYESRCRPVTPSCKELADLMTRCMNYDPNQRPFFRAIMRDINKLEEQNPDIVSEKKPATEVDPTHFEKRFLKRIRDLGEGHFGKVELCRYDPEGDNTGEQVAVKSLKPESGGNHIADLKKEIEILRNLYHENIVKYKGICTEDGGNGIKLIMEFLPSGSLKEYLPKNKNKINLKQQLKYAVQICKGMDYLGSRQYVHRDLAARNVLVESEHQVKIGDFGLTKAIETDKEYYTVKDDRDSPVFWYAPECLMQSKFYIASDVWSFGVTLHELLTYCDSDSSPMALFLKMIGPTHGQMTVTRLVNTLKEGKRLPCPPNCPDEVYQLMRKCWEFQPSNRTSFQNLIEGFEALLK

Turning to `Cc1cnc2ccc(Nc3ncc(Cl)c(NC4CCN(c5ccc(C#N)nn5)CC4)n3)cn12` [Example 13, 6-(4-((5-chloro-2-((3-methylimidazo[1,2-a]pyridin-6-yl)amino)pyrimidin-4-yl)amino)piperidin-1-yl)pyridazine-3-carbonitrile], 0.5 nM corresponded to half-maximal inhibition in data set [1] (IC50). Besides, in data set [2], the intrinsic clearance (CLint scaled) (commonly the capacity of the preparation to metabolise the compound, expressed as a volume cleared per time) at 5 μM was 23.3 mL/min/kg and the half-life at 5 μM worked out at 107 min. Further, in data set [3], the half-life at 5 μM was determined as 21.8 min and the CLint scaled at 5 μM is 79.8 mL/min/kg.
With `N#Cc1ccc(N2CCC(Nc3nc(Nc4ccn5c(C6CC6)cnc5c4)ncc3Cl)CC2)nn1` [Example 14, 6-(4-((5-chloro-2-((3-cyclopropylimidazo[1,2-a]pyridin-7-yl)amino)pyrimidin-4-yl)amino)piperidin-1-yl)pyridazine-3-carbonitrile], the IC50 (commonly the concentration needed to halve the response being measured) in data set [1] came to 3 nM. In addition, in data set [2], the CLint scaled at 5 μM is 232 mL/min/kg and the half-life at 5 μM is 10.7 min. In data set [3], the half-life at 5 μM was 26.1 min and the CLint scaled at 5 μM is 66.7 mL/min/kg.
As for `Cc1nc2cc(Nc3ncc(Cl)c(NC4CCN(c5ccc(C#N)nn5)CC4)n3)ccn2c1C` [Example 16, 6-(4-((5-chloro-2-((2,3-dimethylimidazo[1,2-a]pyridin-7-yl)amino)pyrimidin-4-yl)amino)piperidin-1-yl)pyridazine-3-carbonitrile], half-maximal inhibition in data set [1] (IC50) was put at 0.3 nM.
In the case of `Cc1nnc2cc(Nc3ncc(Cl)c(NC4CCN(c5ccc(C#N)nn5)CC4)n3)ccn12` [Example 20, 6-(4-((5-chloro-2-((3-methyl-[1,2,4]triazolo[4,3-a]pyridin-7-yl)amino)pyrimidin-4-yl)amino)piperidin-1-yl)pyridazine-3-carbonitrile], in data set [1], half-maximal inhibition (IC50) was put at 0.5 nM. The figures for the CLint scaled at 5 μM in data set [2] and in data set [3] were 30 mL/min/kg and 11.3 mL/min/kg, respectively. Further, the half-life at 5 μM in data set [2] was 82.7 min; in data set [3], 153 min.
In turn, `Cc1cnc2cc(Nc3ncc(Cl)c(NC4CCN(c5ccc(C#N)cn5)CC4)n3)cnn12` [Example 21, 6-(4-((5-chloro-2-((3-methylimidazo[1,2-b]pyridazin-7-yl)amino)pyrimidin-4-yl)amino)piperidin-1-yl)nicotinonitrile] showed an IC50 in data set [1] of less than 0.3 nM. Besides, the “Clearance (CL) after iv dosing” value in data set [4] (iv dosing, dose 1 mg/kg (Ex. 9: 0.6, Ex. 18: 0.5, Ex. 50: 0.96 mg/kg)) is 11.8 mL/min/kg. In addition, in data set [4] (setting [5]), the AUC(0-t) (as a rule, the area under the concentration-time curve up to a stated or last time point) was found to be 1420 ng·h/mL and the half-life was 43.2 min. Also, the Vd in data set [4] (rat, plasma, iv dosing, dose 1 mg/kg (Ex. 9: 0.6, Ex. 18: 0.5, Ex. 50: 0.96 mg/kg), read-out: Vss) turned out to be 0.84 L/kg. Moreover, the bioavailability (usually dose-corrected exposure relative to a reference, in per cent) in data set [4] (rat, plasma, oral (generally 5 or 10 mg/kg) versus iv dosing, read-out: F (oral bioavailability)) turned out to be 37%.
In data set [1], `Cc1nnc2cc(Nc3ncc(Cl)c(NC4CCN(c5ccc(C#N)cn5)CC4)n3)cnn12` [Example 25, 6-(4-((5-chloro-2-((3-methyl-[1,2,4]triazolo[4,3-b]pyridazin-7-yl)amino)pyrimidin-4-yl)amino)piperidin-1-yl)nicotinonitrile] registered an IC50 of 3 nM. For the same compound, the values for the CLint scaled at 5 μM in data set [2] and in data set [3] were 54.9 mL/min/kg and 28.5 mL/min/kg, respectively. The figures for the half-life at 5 μM in data set [2] and in data set [3] were 45.2 min and 61 min, respectively.
For `CC(O)c1cnc2cc(Nc3ncc(Cl)c(NC4CCN(c5ccc(C#N)cn5)CC4)n3)ccn12` (centres unmarked) [Example 43, 6-(4-((5-chloro-2-((3-(1-hydroxyethyl)imidazo[1,2-a]pyridin-7-yl)amino)pyrimidin-4-yl)amino)piperidin-1-yl)nicotinonitrile], in that order: less than 0.3 nM, 57.5 mL/min/kg, 74.1 mL/min/kg, 43.2 min and 23.5 min.
As to `CC(C)(F)c1nc2cc(Nc3ncc(Cl)c(NC4CCN(c5ccc(C#N)cn5)CC4)n3)ccn2n1` [Example 59, 6-(4-((5-chloro-2-((2-(2-fluoropropan-2-yl)-[1,2,4]triazolo[1,5-a]pyridin-7-yl)amino)pyrimidin-4-yl)amino)piperidin-1-yl)nicotinonitrile], half-maximal inhibition in data set [1] (IC50) was put at 0.7 nM. Besides, in data set [2], the CLint scaled at 5 μM is 86.8 mL/min/kg and the half-life at 5 μM came out at 28.6 min. Moreover, in data set [3], the half-life at 5 μM amounted to 69.3 min and the CLint scaled at 5 μM is 25.1 mL/min/kg.
`N#Cc1ccc(N2CCC(Nc3nc(Nc4ccc5c(c4)ncn5CC4CC4)ncc3Cl)CC2)nn1` [Example 63, 6-(4-((5-chloro-2-((1-(cyclopropylmethyl)-1H-benzo[d]imidazol-5-yl)amino)pyrimidin-4-yl)amino)piperidin-1-yl)pyridazine-3-carbonitrile] registered an IC50 in data set [1] of 0.4 nM.
Regarding `CC(C)(O)Cn1cnc2cc(Nc3ncc(Cl)c(NC4CCN(c5ccc(C#N)cn5)CC4)n3)ccc21` [Example 64, 6-(4-((5-chloro-2-((1-(2-hydroxy-2-methylpropyl)-1H-benzo[d]imidazol-5-yl)amino)pyrimidin-4-yl)amino)piperidin-1-yl)nicotinonitrile], it took 0.5 nM to reach half-maximal inhibition in data set [1] (IC50). Besides, in data set [2], the CLint scaled at 5 μM is 249 mL/min/kg and the half-life at 5 μM came out at 10 min. Besides, in data set [3], the half-life at 5 μM came out at 40.3 min and the CLint scaled at 5 μM was 43.2 mL/min/kg.
In the case of `CC(C)(O)c1nc2cc(Nc3ncc(Cl)c(NC4CCN(c5ccc(C#N)cn5)CC4F)n3)ccn2n1` (centres unmarked) [Example 89, 6-(4-((5-chloro-2-((2-(2-hydroxypropan-2-yl)-[1,2,4]triazolo[1,5-a]pyridin-7-yl)amino)pyrimidin-4-yl)amino)-3-fluoropiperidin-1-yl)nicotinonitrile], in data set [1], half-maximal inhibition (IC50) required 2 nM.
